# Measurements reported in the supplement of paper PMC11208160.
# Assay: recombinant barcode read abundance after kanamycin selection (control-corrected) (log10(CPM+1)); higher = more efficient recombination; sequences stand for … in AGTGCAGAGAAAATCGGCCAGTTTTCTCTGCCTGCAGTCCGCATGCCGT…ATTTATGCAGCGGACTGCCTTTCTCCCAAAGTGATAAACCGGACAGTATCATGGACCGGTTTTCCCGGTAATCCGTATTTGCAAGGTTGGTTTCACT; site = the 11-nt target
# Outline: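 IS621 bridge RNA target-binding loops were paired with targets in a pooled library tested in E. coli. After co-electroporation with a donor plasmid, cells were plated in two replicates on chloramphenicol/ampicillin LB agar (control) and on chloramphenicol/ampicillin/kanamycin carrying 0.1 mM IPTG. Barcodes at recombinant junctions were counted as counts per million, averaged and control-corrected to give recombination efficiency. Values are log10(CPM+1).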
row,Sequence,recombinant barcode read abundance (log10)
1,"GGGCGTGTGTGGGTTCTAACCTGTTGCCTAG [GGGCGTGCTAG_LTGcore_TG_RTGcore_CT] (site GGGCGTGCTAG) (LTG core: TG, RTG core: CT)",0.228
2,"GGTGCCCAGTGGGTTCTAACCTGTTGCCGAG [GGTGCCCCTCG_LTGcore_AG_RTGcore_CT] (site GGTGCCCCTCG) (LTG core: AG, RTG core: CT)",0.202
3,"GGTGCCCCATGGGTTCTAACCTGTTGCCGAG [GGTGCCCCTCG_LTGcore_CA_RTGcore_CT] (site GGTGCCCCTCG) (LTG core: CA, RTG core: CT)",0.158
4,"GGTGCCCCATGGGTTCTAACCTGTTGCCGTG [GGTGCCCCTCG_LTGcore_CA_RTGcore_CA] (site GGTGCCCCTCG) (LTG core: CA, RTG core: CA)",0.0735
5,"GGTGCCCCTTGGGTTCTAACCTGTTGCCGTA [GGTGCCCCTCG_LTGcore_CT_RTGcore_TA] (site GGTGCCCCTCG) (LTG core: CT, RTG core: TA)",0.258
6,"GGTGCCCGATGGGTTCTAACCTGTTGCCGAG [GGTGCCCCTCG_LTGcore_GA_RTGcore_CT] (site GGTGCCCCTCG) (LTG core: GA, RTG core: CT)",0.0132
7,"GGTGCCCGCTGGGTTCTAACCTGTTGCCGAG [GGTGCCCCTCG_LTGcore_GC_RTGcore_CT] (site GGTGCCCCTCG) (LTG core: GC, RTG core: CT)",0.0494
8,"GGTGCCCGGTGGGTTCTAACCTGTTGCCGAG [GGTGCCCCTCG_LTGcore_GG_RTGcore_CT] (site GGTGCCCCTCG) (LTG core: GG, RTG core: CT)",0.0774
9,"GGTGCCCGTTGGGTTCTAACCTGTTGCCGAC [GGTGCCCCTCG_LTGcore_GT_RTGcore_GT] (site GGTGCCCCTCG) (LTG core: GT, RTG core: GT)",0.151
10,"GGTGCCCTATGGGTTCTAACCTGTTGCCGAG [GGTGCCCCTCG_LTGcore_TA_RTGcore_CT] (site GGTGCCCCTCG) (LTG core: TA, RTG core: CT)",0.122
11,"GGTGCCCTCTGGGTTCTAACCTGTTGCCGGA [GGTGCCCCTCG_LTGcore_TC_RTGcore_TC] (site GGTGCCCCTCG) (LTG core: TC, RTG core: TC)",0.0162
12,"GGTGCCCTGTGGGTTCTAACCTGTTGCCGCA [GGTGCCCCTCG_LTGcore_TG_RTGcore_TG] (site GGTGCCCCTCG) (LTG core: TG, RTG core: TG)",0.15
13,"GGTGCCCTTTGGGTTCTAACCTGTTGCCGAG [GGTGCCCCTCG_LTGcore_TT_RTGcore_CT] (site GGTGCCCCTCG) (LTG core: TT, RTG core: CT)",0.0486
14,"GTCGCCCATTGGGTTCTAACCTGTTGCTAAG [GTCGCCCCTTA_LTGcore_AT_RTGcore_CT] (site GTCGCCCCTTA) (LTG core: AT, RTG core: CT)",0.926
15,"GTCGCCCCCTGGGTTCTAACCTGTTGCTAGG [GTCGCCCCTTA_LTGcore_CC_RTGcore_CC] (site GTCGCCCCTTA) (LTG core: CC, RTG core: CC)",0.416
16,"GTCGCCCCTTGGGTTCTAACCTGTTGCTAAA [GTCGCCCCTTA_LTGcore_CT_RTGcore_TT] (site GTCGCCCCTTA) (LTG core: CT, RTG core: TT)",0.194

row,Sequence,recombinant barcode read abundance (log10)
1,"GTCGCCCCTTGGGTTCTAACCTGTTGCTACA [GTCGCCCCTTA_LTGcore_CT_RTGcore_TG] (site GTCGCCCCTTA) (LTG core: CT, RTG core: TG)",0.151
2,"GTCGCCCCTTGGGTTCTAACCTGTTGCTACC [GTCGCCCCTTA_LTGcore_CT_RTGcore_GG] (site GTCGCCCCTTA) (LTG core: CT, RTG core: GG)",0.487
3,"GTCGCCCCTTGGGTTCTAACCTGTTGCTACT [GTCGCCCCTTA_LTGcore_CT_RTGcore_AG] (site GTCGCCCCTTA) (LTG core: CT, RTG core: AG)",0.19
4,"GTCGCCCCTTGGGTTCTAACCTGTTGCTAGG [GTCGCCCCTTA_LTGcore_CT_RTGcore_CC] (site GTCGCCCCTTA) (LTG core: CT, RTG core: CC)",0.238
5,"GTCGCCCGCTGGGTTCTAACCTGTTGCTAAG [GTCGCCCCTTA_LTGcore_GC_RTGcore_CT] (site GTCGCCCCTTA) (LTG core: GC, RTG core: CT)",0.224
6,"GTCGCCCTGTGGGTTCTAACCTGTTGCTACA [GTCGCCCCTTA_LTGcore_TG_RTGcore_TG] (site GTCGCCCCTTA) (LTG core: TG, RTG core: TG)",0.51
7,"TAAGAATAGTGGGTTCTAACCTGTTGCCTAG [TAAGAATCTAG_LTGcore_AG_RTGcore_CT] (site TAAGAATCTAG) (LTG core: AG, RTG core: CT)",0.079
8,"TAAGAATAGTGGGTTCTAACCTGTTGCCTCT [TAAGAATCTAG_LTGcore_AG_RTGcore_AG] (site TAAGAATCTAG) (LTG core: AG, RTG core: AG)",0.0922
9,"TAAGAATCTTGGGTTCTAACCTGTTGCCTAA [TAAGAATCTAG_LTGcore_CT_RTGcore_TT] (site TAAGAATCTAG) (LTG core: CT, RTG core: TT)",0.175
10,"TAAGAATCTTGGGTTCTAACCTGTTGCCTGC [TAAGAATCTAG_LTGcore_CT_RTGcore_GC] (site TAAGAATCTAG) (LTG core: CT, RTG core: GC)",0.359
11,"TAAGAATGCTGGGTTCTAACCTGTTGCCTAG [TAAGAATCTAG_LTGcore_GC_RTGcore_CT] (site TAAGAATCTAG) (LTG core: GC, RTG core: CT)",0.216
12,"TAAGAATGGTGGGTTCTAACCTGTTGCCTAG [TAAGAATCTAG_LTGcore_GG_RTGcore_CT] (site TAAGAATCTAG) (LTG core: GG, RTG core: CT)",0.0162
13,"TAAGAATTATGGGTTCTAACCTGTTGCCTAG [TAAGAATCTAG_LTGcore_TA_RTGcore_CT] (site TAAGAATCTAG) (LTG core: TA, RTG core: CT)",0
14,"TAAGAATTCTGGGTTCTAACCTGTTGCCTAG [TAAGAATCTAG_LTGcore_TC_RTGcore_CT] (site TAAGAATCTAG) (LTG core: TC, RTG core: CT)",0.0977
15,"TAAGAATTTTGGGTTCTAACCTGTTGCCTAG [TAAGAATCTAG_LTGcore_TT_RTGcore_CT] (site TAAGAATCTAG) (LTG core: TT, RTG core: CT)",0.0485
16,"TAGAGGGAATGGGTTCTAACCTGTTGCGGAG [TAGAGGGCTCC_LTGcore_AA_RTGcore_CT] (site TAGAGGGCTCC) (LTG core: AA, RTG core: CT)",0.247
